Tests used:
P12 cell line = assay: Annexin V flow assay for apoptosis and cell death, P12; format: cell-based; conditions: Annexin V staining
Text: FIGS. 3a-3c show three graphs illustrating the dose dependent inhibition of proliferation of Compound 1 in SEM, P12, and Loucy cells as measured by MTS assay. […] Compound 1 was further analyzed for its effect on cell apoptosis and cell death using a flow based assay using Annexin V staining.

SEM cells = assay: Proliferation assay in SEM leukemia cells; format: cell-based; conditions: read-out: IC50, inhibition of proliferation
Experimental: Dose Dependent Inhibition of Proliferation The 100 compounds selected from the initial in silico screen were assayed for inhibition of proliferation in two leukemia cell lines, SEM and P12 by Cell Titer Glo. The cells for the proliferation assay were spun down and re-suspended. The cell suspension was then divided and the compound to be tested added in desired concentrations and subsequently plated. Following an incubation period, the Cell Titer Glo reagent (Promega CellTiter 96® Aqueous Non-Radioactive Cell Proliferation Assay) was added and allowed to incubate. The absorbance is subsequently measured at 490 nm using a plate reader. Each compound was analyzed for its effects on cell proliferation.
The lead compound, i.e. Compound 1, was analyzed for its effect on cell proliferation at various doses on three different leukemia cell lines: SEM, P12, and Loucy. In order to quantitate the percentage inhibition of cell proliferation, Cell Titer Glo analysis was completed as described in Example 2 above.
FIGS. 3a-3c show three graphs illustrating the dose dependent inhibition of proliferation of Compound 1 in SEM, P12, and Loucy cells as measured by MTS assay. […] Compound 1 was further analyzed for its effect on cell apoptosis and cell death using a flow based assay using Annexin V staining. […]

IC50 (SEM cells): 43.8 µM
SMILES: CCc1ccc(CN(C)C(=O)CCc2nnc(CCc3c[nH]c4ccccc34)o2)nc1 (racemic) [Compound 1]
cell apoptosis and cell death (P12 cell line): caused cells apoptosis and cell death

From patent publication US11427574B2, “Compounds for treating Rac-GTPase mediated disorder” (Children's Medical Center Corporation, priority 2015, dated 2022)
